Legend:
[1] = cyclic voltammetry of Cu(II)-(T)SC (1:1) systems; type: physicochemical; details: 90% (v/v) DMSO/H2O, pH 7.40 (10 mM HEPES), 10 mV/s, 25 °C, I = 0.1 M (nBu4NPF6)
Procedure: Cyclic voltammograms of TSCs derivatives and their Cu(II) complexes at 25.0 ± 0.1 °C were recorded. nBu4NPF6 was used as a supporting electrolyte, and measurements were performed at pH 7.4. The complexes were obtained by mixing the ligand dissolved in DMSO with aqueous solution of CuCl2 in 1:1 ratio. The final concentration of stock was 1 mM. Measurements were performed on a conventional three-electrode system under argon atmosphere using an Autolab PGSTAT 204 potentiostat/galvanostat monitored with Metrohm’s Nova software. Samples were purged for 10 min with argon before recording the cyclic voltammograms. Platinum electrode was used as the working and auxiliary electrode and Ag/AgCl/3 M KCl as the reference electrode. The electrochemical system was calibrated with an aqueous solution of K3[Fe(CN)6] (E1/2 = +0.458 V vs. NHE). Redox potentials were obtained at 10 mV/s scan rate in the range of −1.3 to +0.8 V.

[2] = DPPH free radical scavenging assay; details: for TEAC (Trolox equivalent antioxidant capacity): DPPH assay in ethanol; for TEAC (Trolox equivalent antioxidant capacity) / % Scavenging Effect: 25 °C; for % Scavenging Effect: DPPH:compound = 1:1 ratio after 30 min, ethanol; for IC50: in ethanol, T = 25 °C, cDPPH = 50 µM, ccompound = 5−50 µM
Procedure: The DPPH (Sigma-Aldrich) free radical scavenging capacity was studied at 25.0 ± 0.1 °C on an Agilent Cary 3500 spectrophotometer with tightly closed tandem cuvette according to our approach with some modifications. The stock solution of DPPH (100 µM) was prepared in ethanol, and 0.5 mL of this solution was added to one pocket of the cuvette and 0.5 mL of the tested compound in different concentrations in ethanol was added to another. The final concentration of the studied compounds was in the range 5–50 µM, where for DPPH concentration, it was always 50 µM. A standard compound Trolox (Sigma-Aldrich) was used as a positive control. The percentage of the antioxidant activity (AA), IC50 values (the concentration of compound at which it reduced 50% of DPPH) and Trolox equivalent antioxidant capacity (TEAC) were calculated.

E. faecalis ATCC 29212 = experiment: MIC determination; type: cell-based, Enterococcus faecalis; details: Gram-positive E. faecalis ATCC 29212, Mueller Hinton Broth
Procedure: (§1) Klebsiella pneumoniae (ATCC 49619), Escherichia coli (ATCC 25922), Staphylococcus aureus (ATCC 25928) and Enterococcus faecalis (ATCC 29212) strains were used as Gram-negative and Gram-positive bacterial cultures. The stock solutions of the tested compounds (dissolved in 90% (v/v) DMSO/H2O at 10 mM concentration) were diluted in 100 μL of Mueller Hinton Broth, and then two-fold serial dilutions were performed. As a starting point, 100 μM concentration of the compounds was used. Then, 10^−4 dilution of an overnight bacterial culture in 100 μL of medium was added to each well, with the exception of the medium control wells. Minimum inhibitory concentration (MIC) values of compounds were determined according to our previous work.

S. aureus ATCC 25928 = experiment: MIC determination; type: cell-based, Staphylococcus aureus; details: Gram-positive S. aureus ATCC 25928, Mueller Hinton Broth
Procedure: as §1

A549 = experiment: MTT cytotoxicity assay; type: cell-based, human; details: 24 h incubation time
Procedure: (§2) To test the biological effects of the Cu(II) complexes and the ligands on human cancer cells, DU-145 prostate, A549 lung, and MCF-7 breast adenocarcinoma cells, as well as the multidrug-resistant MCF-7 KCR breast cancer cells were utilized. All the cell lines were maintained in RPMI-1640 media (Biosera, Nuaille, France) complemented with 10% fetal bovine serum (FBS), 2 mM L-glutamine, 0.01% streptomycin and 0.005% penicillin, (Biosera, Nuaille, France) and were cultured under standard conditions in a 37 °C incubator at 5% CO2 and 95% humidity. The cell lines were originally obtained from ATCC.
(§3) The effect of the complexes and of their ligands alone on the viability (on the metabolic activity) of human cancer cells was assessed by MTT assay. The tested compounds were dissolved in 90% (v/v) DMSO/H2O at 10 mM concentration. Equimolar solutions of the ligand CuCl2 salt were used for the cytotoxicity assays. The metal salts without ligands were also tested. For this, 1 × 10^4 cells/well were seeded into 96-well plates and left to grow overnight. On the following day, cells were exposed to increasing concentrations of each compound (0; 2.5; 5; 10; 15; 20 µM). After a 24 h incubation, cells were washed with PBS buffer and then incubated with 0.5 mg/mL MTT (Sigma-Aldrich, St Louis, Missouri, MO, USA) for 1 h at 37 °C. The formazan crystals were solubilized in DMSO (Molar Chemicals, Halásztelek, Hungary), and the absorbance of samples was determined at 570 nm using a Synergy HTX plate reader (BioTek, Winooski, Vermont, VT, USA). Absorption corresponding to the untreated control samples was considered as 100%.

DU-145 = experiment: MTT cytotoxicity assay; type: cell-based, human; details: DU-145, MTT, 24 h incubation time
Procedure: as §2, §3

MCF-7 KCR = experiment: MTT cytotoxicity assay; type: cell-based, human
Procedure: as §2, §3

MCF-7 = experiment: MTT cytotoxicity assay; type: cell-based, human; details: MCF-7, MTT, 24 h incubation time
Procedure: as §2, §3

physchem = type: physicochemical
Procedure: (§4) An Orion 710A pH-meter equipped with a Metrohm combined electrode (type 6.0234.100) and a Metrohm 665 Dosimat burette were used for the UV–vis titrations at 25.0 ± 0.1 °C. Ionic strength of 0.10 M (KCl) was used to keep the activity coefficients constant. The titrations were performed with carbonate-free KOH solution of known concentration (0.10 M) with 30% (v/v) DMSO content. […] The average water ionization constant (pKw) is 14.54 ± 0.05 in the 30% (v/v) DMSO/H2O mixture. Argon was always passed over the solutions during the titrations. An Agilent Cary 8454 diode array spectrophotometer was used to record the UV–vis spectra at an interval of 200–800 nm. The path length was 2 cm. Spectrophotometric titrations were performed using a 0.1 M KOH titrant solution with 30% (v/v) DMSO on samples with 30% (v/v) DMSO containing HCl, KCl and the ligand at 20 μM concentration in the pH range 2.0–12.5 in the absence or in the presence of 1 or 0.5 equiv. Cu(II) ions. Proton dissociation constants (Ka) of the TSC ligands, the overall stability constants (β) of the Cu(II) complexes and the UV–vis spectra of the individual species were calculated by the computer program PSEQUAD [41] as was done in our previous works.

[3] = type: physicochemical; details: for logβ [CuLH−1] / logβ [CuL]+: Cu(II) complex of the named ligand, 30% (v/v) DMSO/H2O, T = 25.0 °C, I = 0.1 M (KCl); for pCu5.0: calculated at pH 5.0, cCu(II) = 20 µM; for pCu5.0 / pCu6.0 / pCu7.4: cligand = 20 µM; for pCu6.0: estimated at pH 6.0, cCu(II) = 20 µM; for pCu7.4: estimated at pH 7.4, cCu(II) = 20 µM
Procedure: as §4

[4] = direct redox reaction of the Cu(II) complexes with GSH (UV–vis, anaerobic); type: physicochemical; details: Cu(II) complex (25 µM) of the named ligand with GSH (1.25 mM), pH 7.4, anaerobic, 30% (v/v) DMSO/H2O, 25.0 °C
Procedure: The redox reaction of the Cu(II) complexes with GSH and ascorbic acid was studied at 25.0 ± 0.1 °C, at pH 7.40 (10 mM HEPES with 0.1 M KCl) on an Agilent Cary 8454 diode array spectrophotometer using a special, tightly closed tandem cuvette (Hellma Tandem Cell, 238-QS). The complex and the reducing agent were separated until the reaction was triggered. Both isolated pockets of the tandem cuvette were completely deoxygenated by bubbling argon for 10 min before mixing the reactants. Spectra were recorded before and then immediately after the mixing, and changes were followed till no further absorbance change was observed. The stock solutions of the reducing agents and the complexes were freshly prepared every day.
During the calculations, the absorbance (A)−time (t) curves were fitted and analyzed at the λmax of the complex. (A0 − Afinal) × e ^(−a×t) + Afinal equation was used where A0, Afinal and a parameters were refined and accepted at the minimal value of the weighted sum of squared residuals (difference between the measured and calculated absorbance values) at the given wavelength. Then observed rate constants (kobs) of the redox reaction were obtained from the data points of the simulated absorbance–time curves as the slope of the ln(A/A0) versus t plots.

[5] = Enterococcus faecalis, ATCC29212
[6] = Staphylococcus aureus, ATCC25928
[7] = Homo sapiens, MCF7, 24 h incubation time

Compound | formal potential E’ vs. Ag/AgCl/3M KCl [1] | TEAC (Trolox equivalent antioxidant capacity) [2] | % Scavenging Effect [2] [%] | IC50 [2] [µM] | MIC (E. faecalis ATCC 29212) [µM] | MIC (S. aureus ATCC 25928) [µM] | IC50 (A549) [µM] | IC50 (DU-145) [µM] | IC50 (MCF-7 KCR; 24 h incubation time) [µM] | IC50 (MCF-7) [µM] | pKa (physchem) | pKa [CuL]+ [3] | logβ [CuLH−1] [3] | logβ [CuL]+ [3] | pCu5.0 [3] | pCu6.0 [3] | pCu7.4 [3] | kobs [4] [min⁻¹] | MIC (E. faecalis ATCC 29212; [5]) [µM] | MIC (S. aureus ATCC 25928; [6]) [µM] | other results
CN(C)C([S-])=N/N=C/c1cc2c(cc1[O-])CC[C@@H]1[C@@H]2CC[C@]2(C)[C@@H](O)CC[C@@H]12.O.[Cu+2] [Cu(II)-Me2-estradiol-TSC] | +0.33 V | 0.7 | 40.4 | 16.4 | 12.5 | 0.78 | 3.44 ± 1.02 | 7.85 ± 1.08 | > 20 | 10.1 ± 1.36 | – | – | – | – | – | – | – | – | – | – | –
CNC([S-])=N/N=C/c1cc2c(cc1[O-])CC[C@@H]1[C@@H]2CC[C@]2(C)[C@@H](O)CC[C@@H]12.O.[Cu+2] [Cu(II)-Me-estradiol-TSC] | +0.29 V | 0.6 | 33.6 | 20.3 | 50 | 6.25 | 3.71 ± 1.02 | 15.8 ± 1.08 | > 20 | 16.7 ± 1.66 | – | – | – | – | – | – | – | – | – | – | –
CN(C)C(=S)NN=Cc1cc2c(cc1O)CC[C@@H]1[C@@H]2CC[C@]2(C)[C@@H](O)CC[C@@H]12 [Me2-estradiol-TSC, 2-((3,17 β-Dihydroxy-estra-1,3,5(10)-triene-2-yl)methylene)-N,N-dimethylhydrazine-1-carbothioamide] | – | 0.9 | 100 | 13.6 | – | – | – | – | – | – | 9.2 ± 0.03 | 3.85 | 10.11 ± 0.03 | 13.96 ± 0.03 | 8.0 | 9.6 | 12.4 | 0.31 ± 0.06 | > 100 | > 100 | IC50 (A549; Homo sapiens): > 20 µM; IC50 (DU-145; Homo sapiens): > 20 µM; IC50 (MCF-7 KCR; [7]): > 20 µM; IC50 (MCF-7; Homo sapiens, MCF7): > 20 µM
CNC(=S)NN=Cc1cc2c(cc1O)CC[C@@H]1[C@@H]2CC[C@]2(C)[C@@H](O)CC[C@@H]12 [Me-estradiol-TSC, 2-((3,17 β-Dihydroxy-estra-1,3,5(10)-triene-2-yl)Methylene)-N-methylhydrazine-1-carbothioamide] | – | 0.8 | 31.0 | 15.4 | – | – | – | – | – | – | 9.28 ± 0.03 | 4.08 | 9.59 ± 0.03 | 13.68 ± 0.03 | 7.6 | 9.1 | 11.8 | 0.22 ± 0.02 | > 100 | > 100 | IC50 (A549; Homo sapiens): 15.8 ± 1.03 µM; IC50 (DU-145; Homo sapiens): > 20 µM; IC50 (MCF-7 KCR; [7]): > 20 µM; IC50 (MCF-7; Homo sapiens, MCF7): > 20 µM
Cc1c(C)c2c(c(C)c1O)CCC(C)(C(=O)O)O2 (centres unmarked) [Trolox, 6-hydroxy-2,5,7,8-tetramethylchroman-2-carboxylic acid, reference compound] | – | 1 | 100 | 12 | – | – | – | – | – | – | – | – | – | – | – | – | – | – | – | – | –
C[C@]12CC[C@@H]3c4ccc(O)cc4CC[C@H]3[C@@H]1CC[C@@H]2O [estradiol] | – | – | 0.5 | > 50 | – | – | – | – | – | – | – | – | – | – | – | – | – | – | – | – | –

From publication PMC9822434, “Estradiol-Based Salicylaldehyde (Thio)Semicarbazones and Their Copper Complexes with Anticancer, Antibacterial and Antioxidant Activities” (Molecules, 2022)
